{"source": "paper PMC3111206", "about": "“Phase I study of PD 0332991, a cyclin-dependent kinase inhibitor, administered in 3-week cycles (Schedule 2/1)” (British Journal of Cancer, 2011)", "key": {"[1]": {"assay": "Phase I dose escalation: dose-limiting toxicities, MTD and RP2D (Schedule 2/1)", "format": "in vivo", "text": "This was a phase I, dose-finding, open-label, non-comparative study of PD 0332991 in patients with Rb-positive solid tumours or non-Hodgkin's lymphoma (NHL). […] On the basis of the low frequency of Rb expression in small-cell lung cancer and […] ([Lee et al, 1987]; [Yokota et al, 1988]; [Shimizu et al, 1994]), patients with both tumour types were excluded from the trial.\nThe primary objectives of this study were to establish the safety profile of PD 0332991 given in a 3-week treatment cycle by identifying dose-limiting toxicities (DLTs), the maximum administered dose and the maximum tolerated dose (MTD), and to establish the recommended dose for phase II studies (RP2D). Secondary objectives included characterisation of single-dose and steady-state pharmacokinetics (PKs) of oral PD 0332991 and evaluation of preliminary antitumour activity.\nCohorts of patients received escalating doses of PD 0332991 given daily for 2 weeks, followed by 1 week off treatment (Schedule 2/1). Treatment cycles were repeated until the occurrence of disease progression, unacceptable toxicity or withdrawal of consent.\nThree to four evaluable patients were initially enrolled per dose-escalation cohort, and the cohort expanded to six evaluable patients, if a DLT occurred during the first treatment cycle. […] The MTD was defined as the highest dose level for which the incidence of first-cycle DLT was <2/6. Cohorts receiving the MTD were expanded to include a minimum of 12 patients. […]"}, "[2]": {"assay": "Plasma pharmacokinetics, single dose and steady state", "format": "in vivo, human", "conditions": "for AUC(0-t): read-out: AUC(0–10), mean (%CV)", "experimental": "Samples for measurement of PK parameters were collected from all patients pre-dose and at intervals up to 10 h post-dose following a single administration (cycle one, day 1) and after repeated dosing (cycle 1, day 8). In cycle 1, three additional blood samples for PK analysis were collected during the 7-day interval without treatment on days 15, 16 and 17. In addition a sample was collected from patients in the expanded MTD cohort 24 h post-dose on cycle 1, day 1. Urine PK assessments (0–10 h post-dose) were carried out on cycle 1, day 1 in patients in the expanded cohort. Blood draws for PK assessment were also obtained at the same time as ECG testing at the projected time-to-first occurrence of the maximum observed plasma concentration (Cmax). Individual area under the concentration–time curve (AUC) values estimated based on dose and individual apparent clearance (CL/F) was obtained from population PK modelling. Additional PK parameters assessed were the time-to-first occurrence of Cmax (Tmax), the apparent volume of distribution during the terminal phase (Vz/F), the terminal elimination half-life (t1/2) and the drug accumulation ratio (Rac).\nPharmacokinetics parameters were determined using non-compartmental analyses (WinNonLin version 4.1; Pharsight, Mountain View, CA, USA). Descriptive statistics for PK parameters were summarised by dosing group, day and cycle."}}, "note": "Where two headings read alike, the source gives them in different places."}
{"compound": "CC(=O)c1c(C)c2cnc(Nc3ccc(N4CCNCC4)cn3)nc2n(C2CCCC2)c1=O", "note": "[PD 0332991]", "values": [{"measurement": "Dose recommended for phase II study", "setting": "[1]; human, in vivo", "value": 200, "unit": "mg QD"}, {"measurement": "Maximum administered dose", "setting": "[1]; human, in vivo, po", "value": 225, "unit": "mg QD"}, {"measurement": "Maximum tolerated dose (MTD)", "setting": "[1]; oral, Schedule 2/1 (14 days on, 7 days off)", "value": 200, "unit": "mg QD"}, {"measurement": "Cmax, mean (%CV)", "setting": "[2]; human, in vivo, 225 mg", "value": "186 (64) ng ml^−1"}, {"measurement": "Tmax, median (range)", "setting": "[2]; human, in vivo, 225 mg", "value": "4.5 (1.0–7.0) h"}, {"measurement": "Cmax", "setting": "[2]; human, in vivo, 225 mg, Cmax, mean (%CV)", "value": 104, "unit": "ng/mL"}, {"measurement": "Tmax", "setting": "[2]; human, in vivo, 225 mg, Tmax, median (range)", "value": 4, "unit": "h"}, {"measurement": "AUC(0-t)", "setting": "[2]; human, plasma, oral, 100 mg, plasma, 100 mg QD, Day 1 (n=2 per footnote a)", "value": 333, "unit": "ng·h/mL"}, {"measurement": "Cmax", "setting": "[2]; human, plasma, oral, 100 mg, plasma, 100 mg QD, Day 1 (n=3), read-out: Cmax, mean (%CV)", "value": 44, "unit": "ng/mL"}, {"measurement": "Tmax", "setting": "[2]; human, plasma, oral, 100 mg, plasma, 100 mg QD, Day 1 (n=3), read-out: Tmax, median (range)", "value": 4, "unit": "h"}, {"measurement": "AUC(0-t)", "setting": "[2]; human, plasma, oral, 100 mg, plasma, 100 mg QD, Day 8 (n=2 per footnote a)", "value": 433, "unit": "ng·h/mL"}, {"measurement": "Cmax", "setting": "[2]; human, plasma, oral, 100 mg, plasma, 100 mg QD, Day 8 (n=3), read-out: Cmax, mean (%CV)", "value": 58, "unit": "ng/mL"}, {"measurement": "Tmax", "setting": "[2]; human, plasma, oral, 100 mg, plasma, 100 mg QD, Day 8 (n=3), read-out: Tmax, median (range)", "value": 4, "unit": "h"}, {"measurement": "AUC(0-t)", "setting": "[2]; human, plasma, oral, 150 mg, plasma, 150 mg QD, Day 1 (n=2 per footnote a)", "value": 622, "unit": "ng·h/mL"}, {"measurement": "Cmax", "setting": "[2]; human, plasma, oral, 150 mg, plasma, 150 mg QD, Day 1 (n=4), read-out: Cmax, mean (%CV)", "value": 78, "unit": "ng/mL"}, {"measurement": "Tmax", "setting": "[2]; human, plasma, oral, 150 mg, plasma, 150 mg QD, Day 1 (n=4), read-out: Tmax, median (range)", "value": 6, "unit": "h"}, {"measurement": "AUC(0-t)", "setting": "[2]; human, plasma, oral, 150 mg, plasma, 150 mg QD, Day 8 (n=3)", "value": 1600, "unit": "ng·h/mL"}, {"measurement": "Cmax", "setting": "[2]; human, plasma, oral, 150 mg, plasma, 150 mg QD, Day 8 (n=3), read-out: Cmax, mean (%CV)", "value": 194, "unit": "ng/mL"}, {"measurement": "Tmax", "setting": "[2]; human, plasma, oral, 150 mg, plasma, 150 mg QD, Day 8 (n=3), read-out: Tmax, median (range)", "value": 7, "unit": "h"}, {"measurement": "AUC(0-t)", "setting": "[2]; human, plasma, oral, 200 mg, plasma, 200 mg QD, Day 1 (n=19 per footnote a)", "value": 525, "unit": "ng·h/mL"}, {"measurement": "Cmax", "setting": "[2]; human, plasma, oral, 200 mg, plasma, 200 mg QD, Day 1 (n=20), read-out: Cmax, mean (%CV)", "value": 81, "unit": "ng/mL"}, {"measurement": "Tmax", "setting": "[2]; human, plasma, oral, 200 mg, plasma, 200 mg QD, Day 1 (n=20), read-out: Tmax, median (range)", "value": 5.7, "unit": "h"}, {"measurement": "AUC(0-t)", "setting": "[2]; human, plasma, oral, 200 mg, plasma, 200 mg QD, Day 8 (n=8)", "value": 1400, "unit": "ng·h/mL"}, {"measurement": "Cmax", "setting": "[2]; human, plasma, oral, 200 mg, plasma, 200 mg QD, Day 8 (n=8), read-out: Cmax, mean (%CV)", "value": 174, "unit": "ng/mL"}, {"measurement": "Tmax", "setting": "[2]; human, plasma, oral, 200 mg, plasma, 200 mg QD, Day 8 (n=8), read-out: Tmax, median (range)", "value": 4, "unit": "h"}, {"measurement": "Vd/F", "setting": "[2]; human, plasma, oral, steady state, 200-mg QD cohort, read-out: Vz/F (apparent volume of distribution), mean", "value": 3240, "unit": "L"}, {"measurement": "half-life", "setting": "[2]; human, plasma, oral, steady state, 200-mg QD cohort, read-out: t1/2 (terminal elimination half-life), mean (converted)", "value": 1600, "unit": "min"}, {"measurement": "CL/F, mean", "setting": "[2]; steady state, 200-mg QD cohort", "value": 88.5, "unit": "l per hour"}]}
